Test results from US12642794B2, “Dose regimens for use of LY3154207 in the treatment of dopaminergic CNS disorders” (Eli Lilly and Company, priority 2018, dated 2026).
Entries after “also recorded” stand apart in the source; their conditions may differ. Where two headings read alike, the source gives them in different places.

Key:
Type in all cases: in vivo, human
healthy subjects = test: HBEA ambulatory blood pressure monitoring (ABPM): blood pressure and pulse rate
Protocol: (§1) This is a phase 1, SAD, crossover design of LY3154207 in healthy subjects conducted in 2 alternating cohorts with dose escalation. Subjects are dosed at 25 mg, 75 mg, 100 mg, 150 mg and 200 mg or placebo. Safety parameters assessed include adverse events (AEs), safety laboratories, vital signs, ambulatory blood pressure monitoring (ABPM) and electrocardiogram (ECG). Subjects provide blood samples after dosing to measure plasma concentrations of LY3154207 for assessment of PK.
Eighteen subjects enrolled with 17 subjects completing the study. […] One subject withdrew due to anxiety following a 150 mg dose. A total of 111 treatment emergent AEs occurred and were mostly mild (101/111). Insomnia, decreased appetite, anxiety, dizziness, headache, nausea, upper abdominal pain, and dysgeusia were the most common AEs and the majority (69/111) occurred at doses ≥100 mg. A dose-related signal for increases in pulse and blood pressure occurred and resolved in 24 hours. […] The administered LY3154207 dose excreted in urine was 0.02%. […] Data indicating a dose-related signal for increases in pulse and blood pressure also indicate the dosing regimens of the present invention may provide an improved combination of efficacy, safety, and clinical tolerability for use of LY3154207 which can avoid and/or minimize these undesirable effects. […] In HBEA Part A, treatment-related adverse events (AEs) occurred primarily at doses ≥100 mg and were mostly mild. In HBEA Part B, treatment-related AEs occurred only at 75 mg (25% of subjects) and were all mild: energy increased, anxiety, decreased appetite, and dizziness. […] Based on ABPM, the 4- to 8-hour estimates of the difference in least squares means for LY3154207 200 mg vs. placebo were 32 beats per minute (bpm) for pulse rate, and 14 mm Hg and 10 mm Hg for systolic and diastolic blood pressure, respectively.

[1] = HBEA plasma pharmacokinetics after single doses
Description: (§2) HBEA is a single ascending dose study of a D1 receptor positive allosteric modulator LY3154207 in healthy volunteers. Study HBEA aims to determine the safety, tolerability, and peripheral and central pharmacokinetics (PK) of single ascending doses of LY3154207 in healthy subjects. Study HBEB aims to evaluate the effect of single-dose LY3154207 on sleep latency in sleep-deprived healthy male subjects as measured by a multiple sleep latency test (MSLT). HBEA was a Phase 1, 2-part, randomized, double-blind, placebo-controlled study in healthy males or females. Part A has a 3-period crossover design with 2 alternating, single-dose escalating cohorts, and subjects were randomized to LY3154207 (n=6) or placebo (n=3) in each cohort in each dosing period. Part B has a single-period, single-dose, 2-cohort design with cerebrospinal fluid (CSF) sampling, and subjects were randomized to LY3154207 (n=8) or placebo (n=4) in each cohort.
as §1
HBEA Part B is a study of Cerebrospinal fluid (CSF) and plasma pharmacokinetic (PK) profile following a single dose of LY3154207 in healthy volunteers. The objective of the study is to determine the CSF and plasma PK profile of LY3154207 in a single dose study m healthy volunteers. This study consisted of 2 cohorts in a single-dose, single-period, placebo-controlled, randomized, double-blind, parallel-group study. Subjects were randomized to 25 mg and 75 mg and underwent serial blood and CSF sampling at 2 hours pre-dose and 24 hours post-dose to measure concentrations of LY3154207. Twenty-four subjects enrolled and all completed the study. […] Concentrations of LY3154207 in CSF were detectable up to 8 h after a dose of 25 mg and up to 24 hours after a dose of 75 mg. At each dose about 1% of the total LY3154207 exposure in plasma was available in CSF. At 25 mg and 75 mg, central penetration of LY3154207 was confirmed by measurement of LY3154207 in CSF supporting its use according to the dosing regimens of the present invention in dopaminergic CNS disorders.

healthy volunteers = test: HBEA Part B adverse events; conditions: 75 mg, all mild
Description: as §2
HBEA Part B is a study of Cerebrospinal fluid (CSF) and plasma pharmacokinetic (PK) profile following a single dose of LY3154207 in healthy volunteers. The objective of the study is to determine the CSF and plasma PK profile of LY3154207 in a single dose study m healthy volunteers. This study consisted of 2 cohorts in a single-dose, single-period, placebo-controlled, randomized, double-blind, parallel-group study. […]

[2] = HBEC Part A pharmacokinetics, healthy subjects; conditions: for CLss/F / RAAUC(0-24) (accumulation ratio Day 14:Day 1) / RACmax (accumulation ratio Day 14:Day 1) / Cmax / AUC(0-t) / CL renal: geometric mean; for Cmax / AUC(0-t) / Tmax / CL renal: human, in vivo, oral; for AUC(0-t): read-out: AUC(0-24); for Tmax: read-out: tmax, median; for CL renal: read-out: CLr (renal clearance) (converted)
Protocol: In this randomized, double-blind, placebo-controlled, multiple ascending dose, parallel-group study, HBEC, healthy subjects (Part A) and participants with PD (Part B) received once-daily doses of LY3154207 (15, 30, 75, or 150 mg in Part A and up to 75 mg in Part B) or placebo for 14 days, as illustrated in FIG. 3.
(§3) Study outcomes included 24-hour ambulatory blood pressure monitoring (ABPM), treatment-emergent adverse events (TEAEs), and PK assessments in both healthy subjects and participants with PD, as well as Movement Disorder Society-United Parkinson's Disease Rating Scale (MDS-UPDRS) assessments to evaluate the impact of LY3154207 on motor function in participants with PD. The objective was to explore the safety, tolerability, and pharmacokinetics (PK) of multiple oral daily dosing of LY3154207 in healthy subjects (Part A) and in participants with PD (Part B).

participants with PD = test: HBEC motor examination subscore, MDS-UPDRS Part III; conditions: 14-day treatment, 75 mg and 75 mg titration
Protocol: FIG. 4: Study HBEC, motor symptoms in PD patients in 14-day treatment with LY3154207. Participants with PD, treated with LY3154207, motor examination subscores compared to those treated with placebo, as measured by MDS-UPDRS Part III. Cohort 5 (LY 75 mg), Cohort 6 (LY 75 mg titration) (Participants with PD in Cohort 6 received 15 mg on Days 1-3 and 30 mg on Days 4-6), Cohort 5/6 (PBO).
as §3

[3] = 200 mg, ABPM 4- to 8-hour estimate

apparent clearance (CL/F) ([1]; across doses): 19 to 25 L/h
Tmax ([1]; both sexes, human, plasma, single doses, read-out: median tmax): 2 to 3 h
half-life ([1]; both sexes, human, plasma, single doses, read-out: terminal half-life (t1/2) (converted)): ~12 h
renal elimination ([1]; in vivo): negligible renal elimination
administered dose excreted in urine ([1]; single doses): 0.02%
accumulation upon repeated dosing [2]: minimal accumulation
CLss/F ([2]; Day 14, LY 15 mg (N = 9)): 30.5 L/h
CLss/F ([2]; Day 14, LY 30 mg (N = 9)): 24.2 L/h
CLss/F ([2]; Day 14, LY 75 mg (N = 9)): 33.8 L/h
CLss/F ([2]; Day 14, LY 150 mg (N = 9)): 34.5 L/h
RAAUC(0-24) (accumulation ratio Day 14:Day 1) ([2]; LY 15 mg (N = 9)): 1.34
RACmax (accumulation ratio Day 14:Day 1) ([2]; LY 15 mg (N = 9)): 1.18
RAAUC(0-24) (accumulation ratio Day 14:Day 1) ([2]; LY 30 mg (N = 9)): 1.03
RACmax (accumulation ratio Day 14:Day 1) ([2]; LY 30 mg (N = 9)): 1.12
RAAUC(0-24) (accumulation ratio Day 14:Day 1) ([2]; LY 75 mg (N = 9)): 0.99
RACmax (accumulation ratio Day 14:Day 1) ([2]; LY 75 mg (N = 9)): 1.13
RAAUC(0-24) (accumulation ratio Day 14:Day 1) ([2]; LY 150 mg (N = 9)): 0.93
RACmax (accumulation ratio Day 14:Day 1) ([2]; LY 150 mg (N = 9)): 0.92
Cmax ([2]; Day 14, LY 15 mg (N = 9)): 66.2 ng/mL
AUC(0-t) ([2]; Day 14, LY 15 mg (N = 9)): 492 ng·h/mL
Tmax ([2]; Day 14, LY 15 mg (N = 9)): 2 h
Cmax ([2]; Day 14, LY 30 mg (N = 9)): 149 ng/mL
AUC(0-t) ([2]; Day 14, LY 30 mg (N = 9)): 1240 ng·h/mL
CL renal ([2]; Day 14, LY 30 mg (N = 9)): 0.06 mL/min
Tmax ([2]; Day 14, LY 30 mg (N = 9)): 2 h
Cmax ([2]; Day 14, LY 75 mg (N = 9)): 307 ng/mL
AUC(0-t) ([2]; Day 14, LY 75 mg (N = 9)): 2220 ng·h/mL
CL renal ([2]; Day 14, LY 75 mg (N = 9)): 0.04 mL/min
Tmax ([2]; Day 14, LY 75 mg (N = 9)): 2 h
Cmax ([2]; Day 14, LY 150 mg (N = 9)): 500 ng/mL
AUC(0-t) ([2]; Day 14, LY 150 mg (N = 9)): 4350 ng·h/mL
CL renal ([2]; Day 14, LY 150 mg (N = 9)): 0.0567 mL/min
Tmax ([2]; Day 14, LY 150 mg (N = 9)): 3 h
Structure (SMILES): C[C@H]1c2cccc(CCC(C)(C)O)c2C[C@H](CO)N1C(=O)Cc1c(Cl)cccc1Cl [LY3154207]
diastolic blood pressure, difference in least squares means vs. placebo (healthy subjects; [3]): 10 mm Hg
pulse rate, difference in least squares means vs. placebo (healthy subjects; [3]): 32 bpm
systolic blood pressure, difference in least squares means vs. placebo (healthy subjects; [3]): 14 mm Hg
time to resolution of increases in blood pressure and pulse rate (healthy subjects; ABPM, mostly resolving): ≤ 24 h
effect on blood pressure and pulse rate measured by ABPM (healthy subjects; single doses 25-200 mg, diurnal rhythm preserved): dose-related increase
linearity of PK ([1]; plasma, 25-200 mg): linear PK profile; also recorded: linear plasma PK
dose proportionality of Cmax and AUC ([1]; plasma, 25 to 200 mg): proportional with dose; also recorded: increased in proportion to LY3154207 dose
subjects with treatment-related AEs (healthy volunteers): 25%
motor examination subscore, MDS-UPDRS Part III, compared to placebo (participants with PD): more consistent improvement
